Test results taken from article PMC7845544 (Frontiers in Pharmacology, 2021).
Entries after “also recorded” stand apart in the source; their conditions may differ.

Assays:
CYP3A4 = CYP3A4 (Homo sapiens, UniProt P08684); assay: Cytochrome P450 inhibition; type: in vitro ADME; details: b51 words it as 52% of vehicle
human granulosa cells = assay: Estradiol production by human granulosa cells from individual patients by diagnosis (NOR, ARA, PCOS); type: cell-based
Procedure: Human granulosa cells were prepared from the spent follicular fluid of women undergoing IVF treatment at Boston IVF Center (Waltham, MA, United States) and at Family Fertility Center (Baylor College of Medicine, Houston, TX, United States) following methods previously established ([Breckwoldt et al., 1996]; [Amsterdam et al., 2003]). Institutional review board approval and informed consent from the patients were obtained before collecting the follicular fluid samples. In brief, red blood cells (RBCs) in the follicular aspirate were lyzed using RBC lysis buffer (Quality Biological Inc., Gaithersburg, MD, United States), and washed extensively with PBS and DMEM/F12 containing 5% FBS, fungizone, and the antibiotics penicillin (100 IU/ml) and streptomycin (100 μg/ml). Subsequently, cells from the aspirate were plated in T75 flasks, cultured for 7 days with fresh media being replaced every other day. At the end of the culture period, cells were released from the flask by trypsin and transferred to 96-well plates (5,000 cells/well, Greiner Bio-One). Following 48 h of culture, media in culture wells was replaced with serum free media containing 0.1% BSA and 10^−7 M androstenedione. Following 24 h of serum starvation, cells were stimulated with fresh media (0.1% BSA, 10^−7 M androstenedione) with FSH or compound for 48 h. Supernatant was collected and stored at −80C for determination of estradiol by ELISA.
Clinical definitions of patient sub-populations for patients at Texas Fertility followed guidelines outlined by the Practice Committee of the American Society for Reproductive Medicine ([Practice Committee of the American Society for Reproductive Medicine, 2015]). […] Advanced reproductive age (ARA) was defined as woman of 35 years old or greater in age, based on the definition of advanced maternal age by Society for Maternal-Fetal Medicine. Polycystic Ovarian Syndrome (PCOS) is a patient with two out of the three Rotterdam criteria ([Rotterdam ESHRE/ASRM-Sponsored PCOS Consensus Workshop Group, 2004]) which includes hyperandrogenism (hirsutism or biochemical), oligomenorrhea or amenorrhea, and/or polycystic ovaries on ultrasound.

mouse oocytes = assay: Oocyte quality, IVF and embryo development in mice; type: in vivo
Procedure: Developmental competence of oocytes was determined in mice, as described previously ([Sriraman et al., 2014]). Mice were superovulated with FSH or FSH + TOP5300. […] To measure nuclear status, oocytes were assessed for perivitelline space and first polar body extrusion by phase contrast inverted microscopy. Oocyte maturity was determined by presence of a polar body reflecting oocytes in metaphase-II (MII). Oocytes without a first polar body were assessed as metaphase-I (MI). After the evaluations, oocytes were incubated for 2 h in the media before use in IVF as described ([Sriraman et al., 2014]). Briefly, oocytes were placed in fertilization media (Research Fertilization Media, Cook Medical, Bloomington, IN, United States) under paraffin oil (Calbiochem, San Diego, CA, United States) and incubated at 37°C in 6% CO2, 5% O2 and 89% N2 for 5–6 h with spermatozoa. Spermatozoa were collected from the cauda epididymis of male C57BL/6J mice and were previously incubated for 1 h in fertilization media prior to use (Research Fertilization Media; Cook Medical, Bloomington, IN) for sperm capacitation. The putative zygotes were then washed and placed in 20 μL drops of culture media (Research Cleave Media; Cook Medical, Bloomington, IN, United States) in Petri dishes, or in 60 μL of culture media in Primo Vision microwell group culture dishes (Vitrolife, Gothenberg, Sweden) and checked for fertilization/cleavage the next morning. Embryos were then cultured in the incubator for an additional 3 days to the blastocyst stage and the blastocyst development rate was recorded.

hERG = hERG (Homo sapiens, UniProt Q12809); assay: hERG channel inhibition (Cyprotex); type: biochemical
mammalian cell = assay: Chromosomal aberrations, micronucleus test (MNT); type: cell-based
Sprague Dawley rats = test system: Sprague Dawley rats
Procedure: Toxicological evaluations were performed in both rat and dog as the second species according to the guidance from FDA. […] The animals were administered vehicle or 30, 100, 300 and 1,000 mg/kg by oral gavage for 14 days. […] Separate groups of animals (n = 6/sex/dose) were used for toxicokinetic (TK) analysis. On day 1 and day 14 of drug administration, serial blood samples were collected from 5 min to 24 h from the TK group animals for analytical measurement of the compound. Blood samples were placed on ice immediately after collection and were centrifuged at approximately 8,000 rpm for 6 min at 2–8°C and the resulting plasma were separated and stored in pre-labeled plastic tubes or vials. The amount of compound in the plasma samples were measure using an HPLC method. […] Evaluated parameters included; mortality, clinical signs, body weight, food consumption, urinalysis, hematology, clinical chemistry, gross post mortem examinations, organ weights and histopathological evaluations of selected tissues. At the end of 14-days of treatment, animals were sacrificed and blood collected for serum chemistry, coagulation and hematological analysis, organ weighed and histological analysis performed in select tissue from control and high dose group.

[1] = rec-hFSH + TOP5300, 30, 100 mg/kg

Sequence of hERG (Q12809 whole entry): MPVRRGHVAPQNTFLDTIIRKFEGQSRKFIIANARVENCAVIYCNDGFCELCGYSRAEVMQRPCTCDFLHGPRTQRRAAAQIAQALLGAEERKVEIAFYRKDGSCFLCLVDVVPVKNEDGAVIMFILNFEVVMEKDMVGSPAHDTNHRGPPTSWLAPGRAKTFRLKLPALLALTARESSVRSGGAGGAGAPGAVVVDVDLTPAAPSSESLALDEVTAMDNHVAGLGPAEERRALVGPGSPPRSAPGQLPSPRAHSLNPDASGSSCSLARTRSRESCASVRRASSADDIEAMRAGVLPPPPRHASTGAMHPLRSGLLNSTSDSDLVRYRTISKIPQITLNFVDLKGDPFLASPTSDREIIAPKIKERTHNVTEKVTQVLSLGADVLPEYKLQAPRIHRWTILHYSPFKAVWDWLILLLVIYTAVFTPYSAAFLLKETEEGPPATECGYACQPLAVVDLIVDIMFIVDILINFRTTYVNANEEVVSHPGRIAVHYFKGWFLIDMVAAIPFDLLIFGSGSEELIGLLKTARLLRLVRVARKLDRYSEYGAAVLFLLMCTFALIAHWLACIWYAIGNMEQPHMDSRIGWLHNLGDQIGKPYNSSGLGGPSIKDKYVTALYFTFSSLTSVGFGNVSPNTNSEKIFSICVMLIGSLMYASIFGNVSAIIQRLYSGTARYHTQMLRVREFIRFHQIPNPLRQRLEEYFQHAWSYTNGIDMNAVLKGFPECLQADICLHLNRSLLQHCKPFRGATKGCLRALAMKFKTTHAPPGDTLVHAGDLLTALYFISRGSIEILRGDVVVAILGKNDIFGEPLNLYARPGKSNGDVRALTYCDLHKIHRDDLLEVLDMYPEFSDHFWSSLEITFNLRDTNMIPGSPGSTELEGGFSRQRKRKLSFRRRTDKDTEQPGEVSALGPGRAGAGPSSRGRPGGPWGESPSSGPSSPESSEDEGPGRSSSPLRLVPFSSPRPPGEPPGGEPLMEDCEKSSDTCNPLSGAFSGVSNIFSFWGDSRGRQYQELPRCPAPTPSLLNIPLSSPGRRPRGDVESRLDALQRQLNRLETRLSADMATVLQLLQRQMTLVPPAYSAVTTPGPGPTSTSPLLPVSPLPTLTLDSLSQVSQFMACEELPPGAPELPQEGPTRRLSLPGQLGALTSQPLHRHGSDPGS
Sequence of CYP3A4 (P08684 whole entry): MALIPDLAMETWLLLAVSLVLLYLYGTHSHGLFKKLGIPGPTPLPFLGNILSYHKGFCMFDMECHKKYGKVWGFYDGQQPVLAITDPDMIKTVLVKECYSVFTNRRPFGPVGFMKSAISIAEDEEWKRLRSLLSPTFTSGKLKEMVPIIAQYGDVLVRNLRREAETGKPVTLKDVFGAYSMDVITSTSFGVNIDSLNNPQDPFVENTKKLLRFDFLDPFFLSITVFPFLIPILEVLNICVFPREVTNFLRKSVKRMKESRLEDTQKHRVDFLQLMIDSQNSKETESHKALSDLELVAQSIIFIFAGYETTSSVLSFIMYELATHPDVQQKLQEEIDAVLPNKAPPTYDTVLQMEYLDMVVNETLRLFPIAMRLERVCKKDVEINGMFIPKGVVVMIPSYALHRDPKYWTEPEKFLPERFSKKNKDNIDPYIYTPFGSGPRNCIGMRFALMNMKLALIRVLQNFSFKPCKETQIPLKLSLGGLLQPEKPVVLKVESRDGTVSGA

Compound | CYP inh @ 10 µM, CYP3A4 (midazolam) (CYP3A4) | fold higher concentration than rec-hFSH required to stimulate maximum estradiol production (human granulosa cells) | Estradiol (pg/ml), ARA (n = 6) (human granulosa cells; FSH (20 nM) or TOP5300 (400 nM), advanced reproductive age, mean ± SD) | Estradiol (pg/ml), NOR (n = 2) (human granulosa cells; FSH (20 nM) or TOP5300 (400 nM), normal ovarian reserve, mean) | Estradiol (pg/ml), PCOS (n = 4) (human granulosa cells; FSH (20 nM) or TOP5300 (400 nM), polycystic ovarian disease, mean ± SD) | % of M2 oocytes (mouse oocytes; 30 mg/kg with low dose FSH) | M1/M2 oocytes relative to FSH and PMSG group (mouse oocytes; 100 mg/kg) | fertilization rates vs rec-hFSH-treated mice (mouse oocytes; [1]) | hatched blastocyst rates vs rec-hFSH-treated mice (mouse oocytes; [1]) | hERG assay result (hERG) | hERG channel inhibition @ 10 uM (hERG; 10 uM) [% inhibition] | Micronucleus Test (MNT) result (mammalian cell) | margin of safety between first significant efficacy (5 mg/kg) and NOAEL (300 mg/kg) (Sprague Dawley rats; rat) [fold] | accumulation after 14-days repeated dosing (Sprague Dawley rats; rat, in vivo) | NOAEL, female rat (Sprague Dawley rats; rat, in vivo, po) [mg/kg] | NOAEL, male rat (Sprague Dawley rats; rat, in vivo, po) | Tmax, Day1 (Sprague Dawley rats; rat, in vivo, po) [h] | Tmax, Day14 (Sprague Dawley rats; rat, in vivo, po) [h] | mortality, rat (Sprague Dawley rats; up to 1,000 mg/kg, 14 days)
COc1cc(C(N)=O)cc(-c2cc3c(cc2OC)OCc2c(C(=O)N(C)C(C)(C)C)nn(-c4cc(Cl)cc(Cl)c4)c2-3)n1 [TOP5668] | CYP3A4 (midazolam) = 50.6% |  |  |  |  |  |  |  |  |  |  |  |  |  |  |  |  |  | 
COc1cc2c(cc1-c1cnn(CCO)c1)-c1c(c(C(=O)N(C)C(C)(C)C)nn1-c1cc(Cl)cc(Cl)c1)CO2 [TOP5300] |  | approximately 20 fold | 10,648 ± 7,338 pg/ml | 4,829 pg/ml | 1,276 + 1,563 pg/ml | comparable to FSH and PMSG | fewer mature oocytes (M2 oocytes) and more M1 oocytes | no differences | no differences | inactive | 16 | N e g a tiv e; also recorded: inactive | 60 | not observed | 300 | 1,000 mg/kg | 2 to 8 | 2 to 8 | all animals survived the duration of the study
